Where no end group is shown, it is not given here.
Tests used:
melanophore cells = test: Pigment dispersion assay with a-MSH- and control-peptide-coated beads on a dish plated with melanophore cells; type: cell-based; settings: TFA-treated beads on agarose gel with 20 nM melantonin; ten and 30 minutes after placement
Procedure: a-MSH and its congener peptide (cp) were screened using a culture dish plated with melanophore cells. Melanophores were maintained in cell culture as previously described (A. Daniolos, et al., Pigment Cell Res. 3, 38 (1990); M. N. Potenza, M. R. Lerner, Pigment Cell Res. 4, 186 (1991)). Four million cells were seeded into a 100 mm tissue culture plate (actual internal diameter was 85 mm) in 20 mL of frog fibroblast conditioned media and incubated at 27° C. for 72 h. For an experiment, the media was removed from the dish and replaced with 9 mL of 0.9% Sea Plaque Agarose (FMC Corporation) prepared in fibroblast conditioned media containing 20 nM melantonin. The plate was then placed in the dark for thirty min, after which beads coated with a-MSH or the cp, were sprinkled on the agarose bed and the pigment dispersion response was monitored by photography.

murine bombesin receptor = target: T1, murine bombesin receptor (Mus musculus, UniProt P21729); test: Screening of bead-released peptides (MPL) on agarose-overlaid melanophores expressing the bombesin receptor; pigment dispersion; type: cell-based; settings: TFA-gas-cleaved beads on agarose with 2 nM melantonin
T1 construct: expressed in transfected cells; host or cells: melanophores (frog; cultured as in Potenza & Lerner), transfected by electroporation with pJG3.6BR
T1 sequence (P21729 whole entry): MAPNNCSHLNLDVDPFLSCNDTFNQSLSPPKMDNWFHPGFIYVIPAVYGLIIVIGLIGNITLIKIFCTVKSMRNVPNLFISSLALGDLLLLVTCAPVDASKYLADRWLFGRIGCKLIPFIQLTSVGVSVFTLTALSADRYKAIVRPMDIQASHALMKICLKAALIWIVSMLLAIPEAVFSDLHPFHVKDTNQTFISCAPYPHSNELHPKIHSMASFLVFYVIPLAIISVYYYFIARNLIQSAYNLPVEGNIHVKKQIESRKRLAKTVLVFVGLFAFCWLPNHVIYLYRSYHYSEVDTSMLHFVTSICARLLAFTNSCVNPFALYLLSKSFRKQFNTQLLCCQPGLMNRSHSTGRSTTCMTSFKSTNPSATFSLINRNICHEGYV
Procedure: Melanophore cells (either transfected or non-transfected and as described in the above-identified patent application) were seeded (4×10^6)into 100 mm tissue culture plate (Falcon, N.J.). For transfected cells, the 100 mm tissue culture dishes were pre-coated with Cell-Tak (Collaborative Research, Inc., Massachusetts) at a concentration of […]. Media and conditions unless otherwise stated, were as described in the above-identified patent application. For wild type cells, no media changes are necessary and the cells can be used as soon as 24 hours after plating. For transfected cells, after the cells have attached to the surface (2-3 h), the media was removed and replaced with 20 ml of frog fibroblast conditioned media which is based on 70% L-15 media (Sigma) with 20% fetal bovine serum supplemented with L-Glutamine and Penicillin Streptomycin (Gibco). The cells were incubated at 27° C. for 12-72 h. Then 12-24 before the experiment, the media was removed and the cells were washed gently with 1×10 ml 70% EX-CELL 320 (JRH Biosciences, Kansas; 70% part A 29% water and 1% part B, hereinafter EX-CELL). […]
The bombesin MPL was screened for agonists using melanophore cells expressing the bombesin receptor. […] Pigment dispersion induced by peptide analogues were monitored by video image subtraction (McClintock, T., et al., Anal. Biochem. 209:298-305 (1993)). […]

| Substance | pigment dispersion response (melanophore cells) | pigment dispersion response of recombinant melanophores to peptide released from bead (agonist activity) (murine bombesin receptor) |
| --- | --- | --- |
| Ser-Lys-Glu-Arg-His-Ser-Trp-Tyr-NH2 (SKERHSWY-NH2) [cp, negative control peptide] | lack of a pigment dispersion response |  |
| litorin |  | biological activity of the free peptide released from (but still coated on) the bead was confirmed |

From patent US5601992A, “Peptide library formats and methods relating thereto” (Bunsen Rush Laboratories, Inc., priority 1994, dated 1997)
